Measured values published in patent publication US4073935A, “Substituted propanol-(2)-derivatives and their nicotinic acid esters, and process for their preparation, and the use thereof as hypolipemic drugs” (Klinge Pharma GmbH & Co., priority 1974, dated 1978).
Where two headings read alike, the source gives them in different places.

Tested on: serum lipids
Assay: Lipid-lowering action in normolipemic rats
Format: in vivo
Settings: Rattus norvegicus, 72 h, 4 × 100 mg/kg oral over 3 days, male Wistar rats, vs controls, X ± Sx
Experimental: Lipid-lowering action was tested on groups of 10 male Wistar rats (Ivanovas-Kisslegg), weight 200-220 g, normolipemic, or ordinary ration ("ssniff" complete feed).
The test compounds were taken up in an aqueous solution of 0.25% agar and 0.85% NaCl and administered orally. After administration of 4 × 100 mg/kg over a period of 3 days, the animals were bled by cardiac puncture after privation of […] for 4 hours.^1
^1 H. Enomoto and R. Zschocke, 3rd Int. Symp. Atheroscler, Berlin 1973, Abstr. 238.
Serum lipids were determined with a Technicon autoanalyzer. Total cholesterol (TC) was tested by the Liebermann-Burchard reaction. Quantitative analysis for triglycerides (TG) was performed by Eggstein and Kreutz's enzyme method (Klin. Wschr. 44, 262, 1966), modified for autoanalyzer.
Lipid lowering effect is expressed as percent lowering of total cholesterol and triglycerides compared to controls.

[1] = read-out: % Lowering TC (total cholesterol)
[2] = read-out: % Lowering TG (triglycerides)

SMILES	inhibition in vivo at 100 mg/kg [1] [%]	inhibition in vivo at 100 mg/kg [2] [%]
COC(=O)c1ccc(OCC(O)COc2ccc(Cl)cc2)cc1 (centres unmarked) [Compound 1, 3-(4'-methoxycarbonylphenoxy)-1-(4'-chlorophenoxy)propanol-(2)]	47.9 ± 10.2	63.8 ± 17.2
CCOC(=O)c1ccc(OCC(O)COc2ccc(Cl)cc2)cc1 (centres unmarked) [Compound 2]	40.4 ± 24.3	60.2 ± 8.4
C=CCOC(=O)c1ccc(OCC(O)COc2ccc(Cl)cc2)cc1 (centres unmarked) [Compound 3]	35.9 ± 18.1	68.6 ± 11
CCCOC(=O)c1ccc(OCC(O)COc2ccc(Cl)cc2)cc1 (centres unmarked) [Compound 4]	53 ± 7.5	74.2 ± 13.4
CC(C)OC(=O)c1ccc(OCC(O)COc2ccc(Cl)cc2)cc1 (centres unmarked) [Compound 5]	15.5 ± 14.7	54.6 ± 28.3
COC(=O)c1cccc(OCC(O)COc2ccc(Cl)cc2)c1 (centres unmarked) [Compound 6]	28.5 ± 10	78.1 ± 11.2
CC(C)OC(=O)c1cccc(OCC(O)COc2ccc(Cl)cc2)c1 (centres unmarked) [Compound 7]	32.1 ± 18.1	73.2 ± 8.3
COC(=O)C=Cc1ccc(OCC(O)COc2ccc(Cl)cc2)cc1 (centres unmarked) [Compound 8, 3-(4'-(2-methoxycarbonylvinyl)-phenoxy)-1-(4'-chlorophenoxy)-propanol-(2)]	17.3 ± 26	52.1 ± 7.7
COC(=O)CCc1ccc(OCC(O)COc2ccc(Cl)cc2)cc1 (centres unmarked) [Compound 9]	44.5 ± 17.5	87.9 ± 11.9
CCOC(=O)C=Cc1ccc(OCC(O)COc2ccc(Cl)cc2)cc1 (centres unmarked) [Compound 10]	38.4 ± 5.6	77.4 ± 8.5
C=CCOC(=O)C=Cc1ccc(OCC(O)COc2ccc(Cl)cc2)cc1 (centres unmarked) [Compound 11]	76.1 ± 3.7	40.2 ± 10.3
CCCOC(=O)C=Cc1ccc(OCC(O)COc2ccc(Cl)cc2)cc1 (centres unmarked) [Compound 12]	40.3 ± 10.8	67 ± 15.7
CC(C)OC(=O)C=Cc1ccc(OCC(O)COc2ccc(Cl)cc2)cc1 (centres unmarked) [Compound 13]	50.4 ± 7.3	79.7 ± 10.4
COC(=O)C=Cc1cccc(OCC(O)COc2ccc(Cl)cc2)c1 (centres unmarked) [Compound 14]	22.9 ± 5.2	64.8 ± 17.7
C=CCOC(=O)c1ccc(OCC(O)COc2ccc(C(C)(C)C)cc2)cc1 (centres unmarked) [Compound 17]	55.8 ± 7.1	83.4 ± 8.8
CCCOC(=O)c1ccc(OCC(O)COc2ccc(C(C)(C)C)cc2)cc1 (centres unmarked) [Compound 18]	34.4 ± 6.9	68.3 ± 23.1
CC(C)OC(=O)c1ccc(OCC(O)COc2ccc(C(C)(C)C)cc2)cc1 (centres unmarked) [Compound 19]	44.9 ± 8	72.9 ± 6.1
COC(=O)CCc1ccc(OCC(O)COc2ccc(C(C)(C)C)cc2)cc1 (centres unmarked) [Compound 22, 3-(4'-(2-methoxycarbonylethyl)-phenoxy)-1-(4'-tert.-butylphenoxy)-propanol-(2)]	46.9 ± 11.4	79 ± 10.7
CCCOC(=O)C=Cc1ccc(OCC(O)COc2ccc(C(C)(C)C)cc2)cc1 (centres unmarked) [Compound 23]	40.9 ± 9.3	77.9 ± 5.5
COC(=O)c1ccc(OCC(O)CNc2ccc(Cl)cc2)cc1 (centres unmarked) [Compound 26, 3-(4'-methoxycarbonylphenoxy)-1-(4'-chlorophenylamino)-propanol-(2)]	25.8 ± 23.7	81 ± 5.2
CC(C)OC(=O)c1ccc(OCC(O)CNc2ccc(Cl)cc2)cc1 (centres unmarked) [Compound 28]	30.8 ± 9.7	64.6 ± 16.9
COC(=O)C=Cc1ccc(OCC(O)CNc2ccc(Cl)cc2)cc1 (centres unmarked) [Compound 29]	12.7 ± 12.5	62.3 ± 10.7
COC(=O)c1ccc(NCC(O)COc2ccc(Cl)cc2)cc1 (centres unmarked) [Compound 30]	12.1 ± 8.6	69.3 ± 15.9
CCOC(=O)c1ccc(NCC(O)COc2ccc(Cl)cc2)cc1 (centres unmarked) [Compound 31]	33.3 ± 17.6	63.6 ± 18.5
COC(=O)c1ccc(OCC(O)CNc2ccc(C(C)(C)C)cc2)cc1 (centres unmarked) [Compound 35]	51.9 ± 9.3	79.2 ± 9

SMILES	inhibition in vivo at 100 mg/kg [1] [%]	inhibition in vivo at 100 mg/kg [2] [%]
COC(=O)C=Cc1ccc(OCC(O)CNc2ccc(C(C)(C)C)cc2)cc1 (centres unmarked) [Compound 37, 3-(4'-(2'-methoxycarbonylvinyl)-phenoxy)-1-(4'-t-butylphenylamino)-propanol-(2)]	32.8 ± 13.7	71.9 ± 13.5
COC(=O)c1ccc(OCC(O)CSc2ccc(Cl)cc2)cc1 (centres unmarked) [Compound 38]	12.3 ± 14.6	53 ± 17.6
COC(=O)C=Cc1ccc(OCC(O)CSc2ccc(Cl)cc2)cc1 (centres unmarked) [Compound 40, 3-(4'-(2-methoxycarbonylvinyl)-phenoxy)-1-(4'-chlorophenylmercapto)-propanol-(2)]	9.6 ± 9.1	59.4 ± 14.7
COC(=O)c1ccc(OCC(O)CSc2ccc(C(C)(C)C)cc2)cc1 (centres unmarked) [Compound 43]	37.2 ± 13.8	71 ± 12.5
COCCOC(=O)c1ccc(OCC(O)COc2ccc(Cl)cc2)cc1 (centres unmarked) [Compound 45]	51.7 ± 12.2	75.8 ± 17.1
O=C(C=Cc1ccc(OCC(O)COc2ccc(Cl)cc2)cc1)OCCO (centres unmarked) [Compound 46]	32.3 ± 19.7	69.5 ± 8.9
COCCOC(=O)C=Cc1ccc(OCC(O)COc2ccc(Cl)cc2)cc1 (centres unmarked) [Compound 47]	44.4 ± 18	57.8 ± 10.7
CC(C)(C)c1ccc(OCC(O)COc2ccc(C(=O)OCCO)cc2)cc1 (centres unmarked) [Compound 48]	60.4 ± 6.7	85.5 ± 15.6
COCCOC(=O)c1ccc(OCC(O)COc2ccc(C(C)(C)C)cc2)cc1 (centres unmarked) [Compound 49]	33.1 ± 16.7	76.1 ± 14.6
CC(C)(C)c1ccc(OCC(O)COc2ccc(C=CC(=O)OCCO)cc2)cc1 (centres unmarked) [Compound 50]	49.3 ± 11.7	84.2 ± 5.4
COCCOC(=O)C=Cc1ccc(OCC(O)COc2ccc(C(C)(C)C)cc2)cc1 (centres unmarked) [Compound 51]	47.8 ± 10.4	77 ± 7.4
O=C(OCCO)c1ccc(OCC(O)CNc2ccc(Cl)cc2)cc1 (centres unmarked) [Compound 52]	50 ± 10	53.9 ± 13.3
O=C(O)c1ccc(OCC(O)COc2ccc(Cl)cc2)cc1 (centres unmarked) [Compound 53, 3-(4'-Carboxyphenoxy)-1-(4'-chlorphenoxy)-propanol-(2)]	40.5 ± 13.5	83.6 ± 15.5
O=C(O)c1cccc(OCC(O)COc2ccc(Cl)cc2)c1 (centres unmarked) [Compound 54, 3-(3'-Carboxyphenoxy)-1-(4'-chlorphenoxy)-propanol-(2)]	28.7 ± 10.2	80 ± 11.4
O=C(O)C=Cc1ccc(OCC(O)COc2ccc(Cl)cc2)cc1 (centres unmarked) [Compound 55, 3-(4'-(2-carboxyvinyl)-phenoxy)-1-(4'-chlorophenoxy)propanol-(2)]	45.4 ± 9.2	49.9 ± 23.7
O=C(O)CCc1ccc(OCC(O)COc2ccc(Cl)cc2)cc1 (centres unmarked) [Compound 56, 3-4'-(2-Carboxyathyl)-phenoxy!-1-(4'-chlorphenoxy)-propanol-(2)]	48 ± 12.9	76.7 ± 7.7
O=C(O)C=Cc1cccc(OCC(O)COc2ccc(Cl)cc2)c1 (centres unmarked) [Compound 57, 3-3'-(2-Carboxyvinyl)-phenoxy!-1-(4'-chlorphenoxy)-propanol-(2)]	28.4 ± 11.1	61.8 ± 10.9
O=C(O)CCc1cccc(OCC(O)COc2ccc(Cl)cc2)c1 (centres unmarked) [Compound 58, 3-3'-(2-Carboxyathyl)-phenoxy!-1-(4'-chlorphenoxy)-propanol-(2)]	42.2 ± 5.6	71.3 ± 7.6
CC(C)(C)c1ccc(OCC(O)COc2ccc(C(=O)O)cc2)cc1 (centres unmarked) [Compound 59, 3-(4'-Carboxyphenoxy)-1-(4'-t-butylphenoxy)-propanol-(2)]	45.7 ± 14.3	66.7 ± 8.1
CC(C)(C)c1ccc(OCC(O)COc2ccc(C=CC(=O)O)cc2)cc1 (centres unmarked) [Compound 61, 3-4'-(2-Carboxyvinyl)-phenoxy!-1-(4'-t-butylphenoxy)-propanol-(2)]	44.9 ± 13.8	81.2 ± 17.1
CC(C)(C)c1ccc(OCC(O)COc2ccc(CCC(=O)O)cc2)cc1 (centres unmarked) [Compound 62, 3-4'-(2-Carboxyathyl)-phenoxy!-1-(4'-t-butylphenoxy)-propanol-(2)]	38.7 ± 15	91.9 ± 5
O=C(O)c1ccc(OCC(O)CNc2ccc(Cl)cc2)cc1 (centres unmarked) [Compound 65, 3-(4'-Carboxyphenoxy)-1-(4'-chlorphenylamino)-propanol-(2)]	20.9 ± 13.7	72.9 ± 11.3
O=C(O)c1ccc(NCC(O)COc2ccc(Cl)cc2)cc1 (centres unmarked) [Compound 68, 3-(4'-Carboxyphenylamino)-1-(4'-chlorphenoxy)-propanol-(2)]	15.2 ± 10	54.1 ± 17
CC(C)(C)c1ccc(OCC(O)CNc2ccc(C(=O)O)cc2)cc1 (centres unmarked) [Compound 70, 3-(4'-Carboxyphenylamino)-1-(4'-t-butylphenoxy)-propanol-(2)]	33.3 ± 12.2	78.1 ± 10.4
